Patent publication US20250129054A1 (Terran Biosciences Inc., priority 2022, published 2025)

What was measured:
[1] = Terminal plasma and brain concentration at the end of the zero maze study; assay type: in vivo, Sprague-Dawley rats; conditions: 5, 15 and 30 mg/kg ip, male SD rats
Procedure: Terminal sampling. At the end of the study, terminal blood was collected from 2 of the vehicle treated rats (>5 mL) and from all methylone HCl treated rats (500 uL) by CP under CO2. Blood samples were placed into Eppendorf tubes on ice containing 22 μL/mL blood (vehicle treated) or 11 μL EDTA (93 mg/mL) (Methylone HCl treated rats) and gently mixed. After no longer than 30 min, blood samples were centrifuged at 10,000 rpm×3 min and plasma samples (>2 mL (vehicle) or 2×100 μL (Methylone HCl treated) placed into Eppendorf tubes (Vehicle) or 96 well plates on dry ice. Immediately after blood sampling, brains were excised, rinsed in saline, blotted, weighed and snap-frozen in liquid N2. All samples were stored at −20
Terminal sampling. At the end of the study, terminal blood was collected from 2 of the vehicle treated rats (>5 mL) and from all S-methylone HCl treated rats (500 uL) by CP under CO2. Blood samples were placed into Eppendorf tubes on ice containing 22 μL/mL blood (vehicle treated) or 11 μL EDTA (93 mg/mL) (S-methylone HCl treated rats) and gently mixed. […]

[2] = system: post-traumatic stress disorder (PTSD); assay: Double-blind, randomized, placebo-controlled clinical trial of methylone-assisted psychotherapy in PTSD; assay type: in vivo, human; conditions: at Study Conclusion
Procedure: A multicenter, randomized, double-blind, placebo-controlled trial is conducted to assess the efficacy and safety of methylone-assisted psychotherapy versus psychotherapy with placebo control in participants diagnosed with at least moderate post-traumatic stress disorder (PTSD).
This multicenter, randomized, double-blind, placebo-controlled trial is conducted at various sites in the United States with IRB approval from each study site. A flexible dose of methylone hydrochloride salt or placebo, followed by a supplemental half-dose unless contraindicated by patient's previous response or medical history, is also administered during the Treatment Period with psychotherapy in at least 3 blinded monthly Experimental Sessions. The Supplemental Dose extends the duration of drug effects on the participants during an Experimental Session. Methylone test groups are further subdivided into specific groups receiving only racemic methylone hydrochloride salt, S-methylone hydrochloride salt, or R-methylone hydrochloride salt. An optional Risk Evaluation and Mitigation Strategy (REMS) Protocol may be implemented for the racemic methylone, S-methylone, and placebo-groups. The Treatment Period lasts for approximately 12 weeks. During the Treatment Period, each Experimental Session is followed by three Intervening Sessions of non-drug psychotherapy. Each Experimental Session involves an overnight stay. The Primary Outcome measure, the change in Clinician Administered PTSD Scale for DSM-5 (CAPS-5), is determined by a blinded Independent Rater (IR) pool multiple times throughout the study. The study consists of separate periods for each participant. Initially, prospective participants undergo a Screening Period involving an initial eligibility assessment, a medical history intake, informed consent, and enrollment of eligible participants. Next, a Preparation Period is undertaken for enrolled participants involving medication tapering and clinical baseline assessments to confirm each participant meets enrollment criteria. As part of the Preparation Period, a detailed assessment of co-morbidities to PTSD is recorded. Participants may remain on prescribed courses of selective serotonin reuptake inhibitor (SSRI) or serotonin and norepinephrine reuptake inhibitor (SNRI) treatment. Dosages and/or frequency of administration of a prescribed SSRI or SNRI may be adjusted to fit within study parameters. Participants may be required to taper a prescribed course of medication in order to maintain eligibility within the study. The Treatment Period consists of three monthly Experimental Sessions and associated Intervening Sessions of integrative behavioral psychotherapy. The Treatment Period lasts approximately 12 weeks. Following the Treatment Period is a Follow-up Period and Study Conclusion. During the Follow-up Period and Study Conclusion, participants complete 4 weeks with no study visits, followed by a Study Conclusion visit.
This study compares the effects of three blinded Experimental Sessions of psychotherapy in combination with flexible doses of methylone or placebo administered as described below. Non-drug preparatory and intervening psychotherapy sessions are also included. Patient's weight is determined for dosage calculation. Initial dose is 100 mg unless this will result in a dosage of less than 1.5 mg/kg of patient weight. Initial dose thereby adjusted upward in 25 mg increments to deliver the lowest dose possible of at least 1.5 mg/kg of patient weight. Initial dose for Experimental Session 2 and 3 is cumulative dose calculated by adding the initial dose plus REMS protocol dose used the previous Experimental Session for each patient.
Randomization occurs prior to the initiation of Experimental Session 1. Each participant is provided the next randomized number in a sequence by a blinded study monitor. […]

[3] = compared to placebo-treated controls

**Q.** Which results are given for `CNC(C)C(=O)c1ccc2c(c1)OCO2` (racemic) [racemic methylone]?
**A.** concentration in plasma and brain at the end of the zero maze study [1]: increased in both brain and plasma at the higher doses; daytime sleepiness as measured by ESS [2]: significant improvement in lessening daytime sleepiness; clinician-rated functional impairment score as measured by SDS [2, 3]: significant improvement; depression as measured by HAM-D [2, 3]: significant improvement; change in CAPS-5 assessment ([2]; with psychotherapy, compared to the placebo group, PTSD participants): significant mean reduction
